Assay results: patent EP4279068A1, “COMPOSITION COMPRISING A COMBINATION OF CAPSAICIN AND/OR PHENYLCAPSAICIN AND ASTAXANTHIN FOR THE PREVENTION AND TREATMENT OF INFLAMMATORY-BASED SKIN DISEASES, IN PARTICULAR ASSOCIATED WITH SKIN AGING” (Safi Medical Care s.r.l., priority 2022, dated 2023)

Assays:
NF-kβ p65 = NF-kβ p65 DNA-binding activity, TransAM p65 ELISA kit, in LPS-stimulated macrophages; assay type: cell-based, rats; conditions: 500 ng/ml LPS, 15 µm, 12 hours, Fig. 4
Experimental: (§1) To evaluate the ability of the synergistic composition of the invention to inhibit the NF-kβ activity in macrophages of rats, we used the DNA-binding activity assay of NF-kβ p65 by ELISA kit for TransAM p65 transcription factor (Active Motif, Carlsbad, CA). The cells were stimulated with 500 ng/ml of LPS in the presence and absence of 15 µm of CAP, 15 µm of ASX or a 15 µm combination of CAP + ASX, for 12 hours, according to the invention. Then, the DNA-binding activity of NF-kβ p65 was determined. 12 hours thereafter LPS stimulation markedly promoted the DNA-binding activity of NF-kβ p65 and the expression of proinflammatory cytokines IL-1β, IL-6, and TNF-α. […] Consistently, similar effects were shown in terms of cytokine expression (Figure 5). An immortalized macrophage cell line was used. The cells were pretreated or not for 1 hr with 15 µm of CAP, 15 µm of ASX or 15 µm of CAP+ASX, and then exposed to 500 ng/ml of LPS for another 24 hrs. IL-1b, IL-6 and TNF-a were detected by ELISA kit purchased from Abcam, Cambridge, (MA) USA. The data are expressed as mean ±SEM, n = 4; *p < 0.001 vs. LPS, **p < 0.001 vs. CAP or ASX alone.

Nrf2 = Nrf2 protein expression in nuclear extracts by Western blot; assay type: cell-based; conditions: cultured human fibroblasts, final concentration 15 µM, 1 hr up to 12 hrs, Figure 3
Experimental: The cultured human fibroblasts were exposed to CAP, ASX or to a combination of the two compounds at the final concentration of 15 µM to evaluate the Nrf2 protein expression over time. […] The […] were washed twice with PBS 1X. The cells were then harvested in 1 ml of 1X PBS and centrifuged at 3000 rpm for 3 min at 4 °C. The cell pellet was carefully resuspended in […] of cold buffer containing 10 mM of HEPES (pH 7.9), 10 mM of KCl, 0.1 mM of EDTA, 0.1 mM of EGTA, 1 µM of DTT, and cocktail complete with protease inhibitors (Roche, Mannheim, Germany). The pellet was then incubated on ice for 15 min to allow the cells to swell. After this time, 15 µl of 10% NP-40 were added and the tube was mixed with vortex for 10 s. The homogenate was then centrifuged at 3000 rpm for 3 min at 4 °C and the nuclear pellet was resuspended in 30 µl of cold buffer consisting of 20 mM of HEPES (pH 7.9), 0.4 M of NaCl, 1 mM of EDTA, 1 mM of EGTA, 1 µM of DTT and protease inhibitors. The pellet was then incubated on ice for 15 min and vortexed for 10 - 15 s every 2 min. The nuclear extract was finally centrifuged at 13,000 rpm for 5 min at 4 °C. The supernatant containing the nuclear proteins was broken down by SDS-polyacrylamide gel and subjected to immunoblot analysis using anti-Nrf2 (1:500 dilution) and anti-Sp1 (1:500 dilution) antibodies.

HO-1 = HO-1 mRNA expression by quantitative real-time PCR in cultured human fibroblasts; assay type: cell-based; conditions: human immortalized ATCC fibroblasts, peak at 15 µM
Experimental: The human immortalized ATCC fibroblasts were exposed for 6 hrs to different concentrations of CAP, ASX, or of a combination of the two compounds (5, 10, 15, and 30 µM). […] ASX causes a dose-dependent increase in HO-1 mRNA, measured relative to the non-inducible HO-2 paralog gene, which peaks (approximately 6-fold) at 15 µM) and subsequently decreases to 30 µM. […] To confirm that the HO-1 gene expression measured at the mRNA level corresponded to an equivalent increase in the heme oxygenase activity, this activity was measured at the same doses of CAP and ASX 6 and 24 hours after administration. […] The results highlight the synergistic activity of CAP and ASX in the ability to activate HO-1 gene expression. In order to determine the best ratio between the two compounds we evaluated using the same experimental model, different proportion of the two compounds at the final concentration of 15 µM (CAP/ASX 1:2, 1:1, 2:1).

IL-1β, IL-6 and TNF-α = assay: Inflammatory cytokine secretion by ELISA in LPS-stimulated macrophages; assay type: cell-based; conditions: macrophages pretreated 1 hr with 15 µm, then 500 ng/ml LPS for 24 hrs, Figure 5
Experimental: as §1

DNA-binding activity of NF-kβ p65 (NF-kβ p65)	SMILES	Nrf2 protein expression in the nuclear extracts (Nrf2)	increase in HO-1 mRNA, measured relative to the non-inducible HO-2 paralog gene (HO-1; 6 hrs exposure)	LPS-stimulated cytokine secretion (IL-1β, IL-6 and TNF-α) (IL-1β, IL-6 and TNF-α)	HO-1 gene expression (HO-1 mRNA), result in words (HO-1; 6 hrs, 5, 10, 15 and 30 µM)
lower DNA-binding activity	CC1=C(/C=C/C(C)=C/C=C/C(C)=C/C=C/C=C(C)/C=C/C=C(C)/C=C/C2=C(C)C(=O)C(O)CC2(C)C)C(C)(C)CC(O)C1=O (stereo not drawn) [ASX, 3,3'-dihydroxy-β-carotene-4,4'-dion]	significantly increased	approximately 6 fold	significantly reduced	–
lower DNA-binding activity	COc1cc(CNC(=O)CCCC/C=C/C(C)C)ccc1O [CAP, (E)-N-(4-hydroxy-3-methoxybenzyl) -8-methylnon-6-enamide]	lower increase	–	significantly reduced	slightly less active
